Experimental data taken from publication PMC9964319, “Half-Sandwich Rhodium Complexes with Releasable N-Donor Monodentate Ligands: Solution Chemical Properties and the Possibility for Acidosis Activation” (Pharmaceutics, 2023).
Where two headings read alike, the source gives them in different places.

Experiments:
[1] = test system: Colo205 human colon adenocarcinoma cell line (doxorubicin-sensitive); test: MTT assay, cytotoxicity at pH 6 and 7; format: cell-based
Experimental: (§1) All cell culture reagents were obtained from Sigma-Aldrich (Merck KGaA, Darmstadt, Germany) and plasticware from Sarstedt (Nümbrecht, Germany). Human colonic adenocarcinoma cell lines Colo205 (catalog number: ATCC-CCL-222) and its doxorubicin-resistant counterpart Colo320 (catalog number: ATCC-CCL-220.1) were purchased from LGC Promochem (Teddington, UK). The cells were cultured in RPMI 1640 medium supplemented with 10% heat-inactivated fetal bovine serum, 2 mM L-glutamine, 1 mM sodium pyruvate, and 100 mM HEPES buffer, adjusting the pH to 6.0 or 7.0. The cells were incubated at 37 °C in a 5% CO2–95% air atmosphere. The semiadherent human colon cancer cells were detached with Trypsin-Versene solution for 5 min at 37 °C.
(§2) The solutions were freshly prepared prior to measurements (see Section 2.1). […] Firstly, these samples were diluted in complete culture medium; then, two-fold serial dilutions of the compounds were prepared in 100 μL of RPMI 1640, horizontally. The semiadherent colonic adenocarcinoma cells were treated with Trypsin-Versene solution. They were adjusted to a density of 1 × 10^4 cells in 100 μL of RPMI 1640 medium and were added to each well, with the exception of the medium control wells. The final volume of the wells containing compounds and cells was 200 μL. Samples were triplicated. The pH of the medium was adjusted to 6.0 or 7.0.
(§3) The culture plates were incubated at 37 °C for 72 h; at the end of the incubation period, 20 μL of MTT solution (from a stock solution of 5 mg/mL) was added to each well. After incubation at 37 °C for 4 h, 100 μL of SDS solution (10% in 0.01 M HCI) was added to each well, and the plates were further incubated at 37 °C overnight. Cell growth was determined by measuring the optical density (OD) at 540/630 nm with a Multiscan EX ELISA reader (Thermo Labsystems, Cheshire, WA, USA). […] Curves were fitted using GraphPad Prism software (2022, version 9.4.1, Graphpad Software (LLC) d.b.a Dotmatics, San Diego, CA, USA) using the sigmoidal dose–response model (comparing variable and fixed slopes).
(§4) The pH-dependent solution speciation of the selected mixed-ligand complexes is an important feature in the hypothesized mechanism of action, and the modeling of acidosis is necessary for the in vitro anticancer assays. In order to find out the cytotoxicity difference based on the pH of the medium, cytotoxic activity was determined at pH 6 and 7 by MTT assay in two human colon adenocarcinoma cell lines (doxorubicin-sensitive Colo205 and doxorubicin-resistant Colo320). […] The mixed-ligand complexes were prepared prior to the measurements, as was already described in Section 2.1. With this method, the effect of the different counter ions could be avoided, and a more adequate comparison of the mixed-ligand complexes could be conducted.

[2] = test system: Colo320 human colon adenocarcinoma cell line (doxorubicin-resistant); test: MTT assay, cytotoxicity at pH 6 and 7; format: cell-based
Experimental: as §1, §2, §3, §4

[3] = test system: E. coli 32313 (resistant); test: Antibacterial assay, MIC in 96-well plates at different pH; format: cell-based
From the text: (§5) The antibacterial effect was studied in two Gram-positive and in two Gram-negative strains. The Gram-positive S. aureus ATCC 25923 (ATCC, Manassas, VA, USA) is a methicillin-susceptible reference bacterial strain, while S. aureus 272123 is a clinical isolate and resistant to methicillin and ofloxacin (MRSA), which was given by Prof. Dr. Leonard Amaral (Institute of Hygiene and Tropical Medicine, Lisbon, Portugal). The Gram-negative strains were E. coli ATCC 25922 (ATCC, Manassas, VA, USA), which is sensitive to antibiotics, and E. coli 32313 (provided by the Institute of Clinical Microbiology, University of Szeged, Hungary), which is resistant to different antibiotics (trimethoprim/sulfamethoxazole, gentamicin, ciprofloxacin, and norfloxacin).
(§6) The minimum inhibitory concentrations (MICs) of the compounds were determined in 96-well plates based on the Clinical and Laboratory Standard Institute guidelines. The compounds were diluted in 100 μL of Mueller Hinton broth. Then, an overnight bacterial culture diluted 10,000 times in 100 μL of medium was added to each well, with the exception of the medium control wells. For each strain and each tested compound, four pH values were set (5, 6, 7, and 8). Each sample was triplicated.

[4] = test system: E. coli ATCC 25922 (sensitive); test: as above; format: cell-based
From the text: as §5, §6

S. aureus 272123 (MRSA) = test: as above; format: cell-based
From the text: as §5, §6

[5] = test system: S. aureus ATCC 25923 (methicillin-susceptible); test: as above; format: cell-based
From the text: as §5, §6

[6] = Formation constants of mixed-ligand half-sandwich complexes (UV-vis and 1H NMR); format: physicochemical; conditions: for Formation constant logK of mixed-ligand complex: aqua complex + monodentate ligand, I = 0.10 M (KCl), t = 25.0 °C, UV-vis and 1H NMR; for formation of the mixed-ligand complex: under the applied conditions, 1H NMR, limit of detection 5%
Experimental: NMR spectroscopic studies were carried out on a Bruker Avance III HD Ascend 500 Plus instrument. For the aqueous samples, ^1H NMR spectra were recorded with the WATERGATE water suppression pulse scheme using DSS internal standard. The highest peak of DSS was 0.00 ppm. The measurement was very similar to the UV-vis measurement since the complex–to–monodentate ligand ratio was also between 0–10 equivalents; the spectra were recorded after the given waiting time. […] This technique was useful in those cases where no spectral change was visible during the UV-vis titrations.
In both measurement methods, the formation constant (K) was obtained using the computer program PSEQUAD [38].
It is worthwhile to mention that the liberation of the bidentate ligand was not detected even at higher monodentate ligand excess (~10), which means that the disruption of the bond between the bidentate ligand and the metal center is not feasible under these conditions. The calculated formation constants are compared in Figure 5 and are collected in Table S2. The formation of the mixed-ligand complexes was not detected in three cases under the applied conditions, namely [Ru(p-cym)(en)(mim)]^2+, [Ru(p-cym)(phen)(mim)]^2+, and [Ru(p-cym)(en)(Py)]^2+. For these complexes, only a higher limit of the formation constant could be given, assuming that a maximum of 5% of the complex would form (limit of detection) under the conditions used for ^1H NMR spectroscopy. Based on Figure 5, the following trends are observed in the formation constants: (i) [RhCp*(en)(H2O)]^2+ and [RhCp*(phen)(H2O)]^2+ have a stronger monodentate ligand-binding ability than the Ru(p-cym) analogs; (ii) the formation constants of the [Ru(p-cym)(8HQH-1)(N)]^+ complexes are similar or somewhat higher than those of the RhCp* analogs; (iii) a stability trend for the monodentate ligand: mim > bim > Py (iv) and the bidentate ligand: 8HQH-1 > phen ≥ en can be seen.

[7] = Colo205, pH 6, 72 h incubation, read-out: IC50
[8] = Colo205, pH 7, 72 h incubation, read-out: IC50
[9] = Colo320, pH 6, 72 h incubation, read-out: IC50
[10] = Colo320, pH 7, 72 h incubation, read-out: IC50
[11] = E. coli resistant, pH 5, after one day, read-out: MIC
[12] = E. coli resistant, pH 6, after one day, read-out: MIC
[13] = E. coli resistant, pH 7, after one day, read-out: MIC
[14] = E. coli resistant, pH 8, after one day, read-out: MIC
[15] = E. coli sensitive, pH 5, after one day, read-out: MIC
[16] = E. coli sensitive, pH 6, after one day, read-out: MIC
[17] = E. coli sensitive, pH 7, after one day, read-out: MIC
[18] = E. coli sensitive, pH 8, after one day, read-out: MIC
[19] = pH 5, after one day, read-out: MIC
[20] = pH 6, after one day, read-out: MIC
[21] = pH 7, after one day, read-out: MIC
[22] = pH 8, after one day, read-out: MIC
[23] = S. aureus sensitive, pH 7, after one day, read-out: MIC
[24] = S. aureus sensitive, pH 8, after one day, read-out: MIC

c1ccncc1 [Py, pyridine, reference compound]
> 100 µM: IC50 ([1]; Homo sapiens, COLO 205, 72 h, pH 6) | IC50 ([1]; Homo sapiens, COLO 205, 72 h, pH 7) | IC50 ([2]; Homo sapiens, COLO 320, 72 h, pH 6) | IC50 ([2]; Homo sapiens, COLO 320, 72 h, pH 7) | MIC ([3]; Escherichia coli, 24 h, pH 5) | MIC ([3]; Escherichia coli, 24 h, pH 6) | MIC ([3]; Escherichia coli, 24 h, pH 7) | MIC ([3]; Escherichia coli, 24 h, pH 8) | MIC ([3]; Escherichia coli, read-out: MIC (no antibacterial effect)) | MIC ([4]; Escherichia coli, ATCC25922, 24 h, pH 5) | MIC ([4]; Escherichia coli, ATCC25922, 24 h, pH 6) | MIC ([4]; Escherichia coli, ATCC25922, 24 h, pH 7) | MIC ([4]; Escherichia coli, ATCC25922, 24 h, pH 8) | MIC ([4]; Escherichia coli, ATCC25922, read-out: MIC (no antibacterial effect)) | MIC (S. aureus 272123 (MRSA); Staphylococcus aureus, 24 h, pH 5) | MIC (S. aureus 272123 (MRSA); Staphylococcus aureus, 24 h, pH 6) | MIC (S. aureus 272123 (MRSA); Staphylococcus aureus, 24 h, pH 7) | MIC (S. aureus 272123 (MRSA); Staphylococcus aureus, 24 h, pH 8) | MIC (S. aureus 272123 (MRSA); Staphylococcus aureus, read-out: MIC (no antibacterial effect)) | MIC ([5]; Staphylococcus aureus, ATCC25923, 24 h, pH 7) | MIC ([5]; Staphylococcus aureus, ATCC25923, 24 h, pH 8) | MIC ([5]; Staphylococcus aureus, ATCC25923, read-out: MIC (no antibacterial effect))

Cc1c(C)c(C)[c-](C)c1C.[Rh+2][O]c1cccc2cccnc12.c1ccc2[nH]cnc2c1 [[RhCp*(8HQH-1)(H2O)]+ + bim]
3.4 ± 0.1: Formation constant logK of mixed-ligand complex [6]

Cc1c(C)c(C)[c-](C)c1C.[Cl][Rh+][O]c1cccc2cccnc12 [[RhCp*(8HQH−1)Cl]]
6.1 ± 0.2 µM: IC50 [2, 9]
50 µM: MIC (S. aureus 272123 (MRSA); [19])
12.5 µM: MIC (S. aureus 272123 (MRSA); [20]) | MIC (S. aureus 272123 (MRSA); [21]) | MIC (S. aureus 272123 (MRSA); [22]) | MIC [5, 23] | MIC [5, 24]
8.8 ± 0.4 µM: IC50 [1, 8]
> 100 µM: MIC [3, 11] | MIC [3, 14] | MIC [4, 15] | MIC [4, 18]
>100 µM: MIC [3, 12] | MIC [3, 13] | MIC [4, 16] | MIC [4, 17]
8.1 ± 0.5 µM: IC50 [1, 7]
3.3 ± 0.1 µM: IC50 [2, 10]

Cc1c(C)c(C)[c-](C)c1C.NCCN.[Rh+3].c1ccc2[nH]cnc2c1 [[RhCp*(en)(H2O)]2+ + bim]
3.3 ± 0.2: Formation constant logK of mixed-ligand complex [6]

Cc1c(C)c(C)[c-](C)c1C.[Rh+3].c1ccc2[nH]cnc2c1.c1cnc2c(c1)ccc1cccnc12 [[RhCp*(phen)(bim)]^2+]
4.9 ± 0.2: Formation constant logK of mixed-ligand complex [6]

Cc1c(C)c(C)[c-](C)c1C.[Cl-].[Cl-].[Rh+3].c1cnc2c(c1)ccc1cccnc12 [[RhCp*(phen)Cl]Cl]
> 100 µM: IC50 [1, 7] | IC50 [1, 8] | IC50 [2, 9] | IC50 [2, 10] | MIC [3, 11] | MIC [3, 14] | MIC ([3]; any of the bacterial strains, resistant E. coli, read-out: MIC (no antibacterial effect)) | MIC [4, 15] | MIC [4, 18] | MIC ([4]; any of the bacterial strains, E. coli, read-out: MIC (no antibacterial effect)) | MIC (S. aureus 272123 (MRSA); any of the bacterial strains, read-out: MIC (no antibacterial effect)) | MIC (S. aureus 272123 (MRSA); [19]) | MIC (S. aureus 272123 (MRSA); [22]) | MIC [5, 24] | MIC ([5]; any of the bacterial strains, S. aureus, read-out: MIC (no antibacterial effect))
>100 µM: MIC [3, 12] | MIC [3, 13] | MIC [4, 16] | MIC [4, 17] | MIC (S. aureus 272123 (MRSA); [20]) | MIC (S. aureus 272123 (MRSA); [21]) | MIC [5, 23]

Cc1ccc(C(C)C)cc1.NCCN.[Ru+2].c1ccncc1 [[Ru(p-cym)(en)(Py)]^2+]
< 1.5: Formation constant logK of mixed-ligand complex [6]
not detected: formation of the mixed-ligand complex [6]

Cc1ccc(C(C)C)cc1.Cn1ccnc1.NCCN.[Ru+2] [[Ru(p-cym)(en)(mim)]^2+]
not detected: formation of the mixed-ligand complex [6]

Cc1ccc(C(C)C)cc1.Cn1ccnc1.[Ru+2].c1cnc2c(c1)ccc1cccnc12 [[Ru(p-cym)(phen)(mim)]^2+]
not detected: formation of the mixed-ligand complex [6]

Cc1ccc(C(C)C)cc1.[Ru+][O]c1cccc2cccnc12.c1ccncc1 [[RuCym(8HQH-1)(H2O)]+ + Py]
1.6 ± 0.2: Formation constant logK of mixed-ligand complex [6]
